From US9834514B2, “Antibiotic sensitivity-restoring and photosensitive agents” (New Mexico Tech Research Foundation, priority 2015, dated 2017)

How the values were obtained:
MRSA = assay: Resensitization to antibiotics (log reduction, TABLE 29); assay type: cell-based, S. aureus
Method: In a 96-well microtiter plate, two-fold dilutions were made of each drug (starting with 100 μM) in 100 μL of a cell suspension in TSB. The resulting samples were incubated overnight at 37° C. on a rotary shaking incubator at 100 rpm. The samples were then visually inspected for turbidity. A 20% well volume of MTT reagent (5 mg/mL) was subsequently added, and the samples were incubated for about 20 minutes.

drug-resistant bacteria = assay: Summary of synergistic activities with antibiotic families (TABLE 45); assay type: cell-based
Source text: TABLE 45 summarizes the synergistic activities of the seven classes of clinically used antibiotics and compounds of the invention against a variety of different drug-resistant bacteria.

P. aeruginosa = assay: Cell killing with compounds and PME at fixed concentrations, with and without white light; assay type: cell-based; conditions: for Co-treatment with PME: log reduction in the CFU/mL compared to PME alone: 20 μM compound and 0.1 μg/mL PME
Method: FIG. 26 is an example of the treatment of P. aeruginosa with compound 1 and PME at fixed concentrations.
P. aeruginosa cells were also treated with white light upon being incubated with compound 1 for different durations of time. In a 12×75 mm borosilicate glass culture tube, 1 mL of cell suspension was added. PME was added to the cells, and the samples were mixed using a vortex mixer. The resulting samples were incubated for 1.5 hours at 37° C. on a rotary shaking incubator at 100 rpm. Compound 1 was then added, and the samples were incubated for 30 minutes at 37° C. on a rotary shaking incubator at 100 rpm. The samples were then irradiated with white light using a Lumacare™ LC-122 for 2 minutes (irradiation λ1) and incubated overnight at 37° C. The samples were irradiated again with white light using a Lumacare™ LC-122 for 2 minutes (irradiation λ2). Ten-fold dilutions were made of each sample, and 10 μL of each dilution was drip-streaked onto an agar plate. The samples were incubated overnight at 37° C., and colony counts were performed to calculate CFU/mL.
FIG. 55 is an illustrative example of the treatment of P. aeruginosa with compound 1, PME, co-treatment with compound 1 and PME, and co-treatment with compound 1, PME, and light (λ1 and λ2) at fixed concentrations.

[1] = test system: A. baumannii (ATCC 15151); assay: MIC against A. baumannii; assay type: cell-based; conditions: Acinetobacter baumannii, ATCC15151
Method: TABLE 28 details the individual MIC values of compounds 1, 7, 8, 9, 10, 11, PMB, PME, and light against A. baumannii.
(§1) The MICs of PME and compounds 8-11 were determined against A. baumannii (ATCC 15151). […] After incubating the cells with PME, a compound (5 μM) was added, and the samples were further incubated at 37° C. At specific time points, samples were taken and diluted ten-fold in media. Ten microliters of each dilution was then drip-streaked onto an agar plate and incubated overnight at 37° C. Colony counts were then performed, and the CFU/mL were calculated.

[2] = test system: MRSA isolates (S. aureus ATCC 33591, BAA-44, BAA-1707, BAA-1717, BAA-1720, BAA-1747, BAA-1754, BAA-1761, BAA-1763, BAA-1764, BAA-1766); assay: Combination effects of compounds 7-11 and antibiotics on MRSA isolates (turbidity); assay type: cell-based
Source text: Inhibition resulting from co-treatment of a broth suspension with a compound of the invention and an antibiotic was compared to broth suspensions subjected to each individual treatment. A visual observation of inhibition with the unaided eye upon co-treatment of the broth suspensions, based on turbidity, was considered synergistic.
Exceptions to reading complete inhibition of growth included Gram-positive cocci. For Gram-positive cocci, trailing growth was observed. For these species, the MICs were read at the first spot where trailing was observed, and tiny buttons of growth were ignored. […]
Two-fold dilutions of the antibiotics were prepared in a liquid growth medium dispensed in test tubes. […] The antibiotic-containing tubes were inoculated with a standard bacterial suspension of 5×10^5 CFU/mL. Following an overnight incubation (16-20 hrs) at 35±2° C. under ambient air, the tubes were examined for visible bacterial growth based on turbidity. The lowest concentration of antibiotic that prevented growth was determined to be the MIC. An incubation time of 24 hrs was used to determine the MICs of oxacillin and vancomycin.

[3] = test system: A. baumannii (ATCC 15151); assay: Time course of colony counts with compounds and PME or PMB; assay type: cell-based; conditions: FIG. 51
Method: as §1

Clc1ccc(/C=C/c2[nH]c3ccccc3c2/C=C/c2ccc(Cl)cc2)cc1 [Compound 1]
Log Reduction (MRSA; compound 1 μM, MRSA ATCC BAA-1717, Light (2 min)): 6
Log Reduction (MRSA; compound 10 μM, Norfloxacin (20 μg/mL)): 9
Log Reduction (MRSA; compound 10 μM, Oxacillin (100 μg/mL)): 7-8
Log Reduction (MRSA; compound 10 μM, Tetracycline (0.1 μg/mL)): 5-6
Log Reduction (MRSA; compound 10 μM, Tobramycin (100 μg/mL)): 9
Synergy with Erythromycin (Macrolides) (drug-resistant bacteria; MRSA ATCC BAA-44): Synergy (1)
Synergy with Tetracycline (Tetracyclines) (drug-resistant bacteria; MRSA ATCC BAA-44, †includes doxycycline): Synergy† (1)
Co-treatment with PME: log reduction in the CFU/mL compared to PME alone (P. aeruginosa): 2-log reduction
Co-treatment with PME: log reduction in the CFU/mL compared to PME alone (P. aeruginosa; listed as compound 1): ~2 log reduction
reduction in the CFU/mL compared to co-treatment with compound 1 and PME (P. aeruginosa; additional irradiation after an overnight incubation (λ2), FIG. 55): negligible reduction
log reduction in the CFU/mL compared to co-treatment with compound 1 and PME (P. aeruginosa; light immediately after a 30 minute incubation with compound 1 (λ1), FIG. 55): ~8 log
PDT (P. aeruginosa; with white light, TABLE 19): ~7-log reduction
MIC [1]: > 100 µM

Brc1ccc(/N=N/c2c[nH]c3ccccc23)cc1 [Compound 8]
Synergy with Polymyxin B (Polypeptides) (drug-resistant bacteria; A. baumannii ATCC 15151): Synergy
Synergy with Polymyxin E (Polypeptides) (drug-resistant bacteria; A. baumannii ATCC 15151): Synergy
Synergy with Polymyxin B (Polypeptides) (drug-resistant bacteria; CRE ATCC 1705): Synergy
Synergy with Polymyxin E (Polypeptides) (drug-resistant bacteria; CRE ATCC 1705): Synergy
Synergy with Polymyxin B (Polypeptides) (drug-resistant bacteria; CRE ATCC 2340): Synergy
Synergy with Polymyxin E (Polypeptides) (drug-resistant bacteria; CRE ATCC 2340): Synergy
Synergy with Polymyxin B (Polypeptides) (drug-resistant bacteria; CRE ATCC 2341): Synergy
Synergy with Polymyxin E (Polypeptides) (drug-resistant bacteria; CRE ATCC 2341): Synergy
Synergy with Polymyxin B (Polypeptides) (drug-resistant bacteria; CRE ATCC 2342): Synergy
Synergy with Polymyxin E (Polypeptides) (drug-resistant bacteria; CRE ATCC 2342): Synergy
Synergy with Norfioxacin (Fluoroquinolones) (drug-resistant bacteria; MRSA ATCC BAA-44): Synergy
Synergy with Oxacillin (β-lactama) (drug-resistant bacteria; MRSA ATCC BAA-44, *indicated ampicillin, dicloxicillin and Penicillin G): Synergy*
Synergy with Polymyxin B (Polypeptides) (drug-resistant bacteria; P. aeruginosa ATCC 27853): Synergy
Synergy with Polymyxin E (Polypeptides) (drug-resistant bacteria; P. aeruginosa ATCC 27853): Synergy
Synergy with Norfioxacin (Fluoroquinolones) (drug-resistant bacteria; VRE ATCC 51299): Synergy
Synergy with Tetracycline (Tetracyclines) (drug-resistant bacteria; VRE ATCC 51299): Synergy
Synergy with Vancomycin (Glycopeptides) (drug-resistant bacteria; VRE ATCC 51299): Synergy
combination effect with Gentamycin ([2]; MRSA ATCC 33591): No Synergy
combination effect with Norfloxacin ([2]; MRSA ATCC 33591): No Synergy
combination effect with Oxacillin ([2]; MRSA ATCC 33591): No Synergy
combination effect with Tetracycline ([2]; MRSA ATCC 33591): No Synergy
combination effect with Vancomycin ([2]; MRSA ATCC 33591): Susceptible
combination effect with Norfloxacin ([2]; MRSA ATCC BAA-44): No Synergy
combination effect with Oxacillin ([2]; MRSA ATCC BAA-44): No Synergy
combination effect with Tetracycline ([2]; MRSA ATCC BAA-44): Susceptible
combination effect with Vancomycin ([2]; MRSA ATCC BAA-44): Susceptible
combination effect with Gentamycin ([2]; MRSA ATCC BAA-1707): Susceptible
combination effect with Norfloxacin ([2]; MRSA ATCC BAA-1707): Susceptible
combination effect with Oxacillin ([2]; MRSA ATCC BAA-1707): Susceptible
combination effect with Tetracycline ([2]; MRSA ATCC BAA-1707): No Synergy
combination effect with Vancomycin ([2]; MRSA ATCC BAA-1707): Susceptible
combination effect with Gentamycin ([2]; MRSA ATCC BAA-1717): Susceptible
combination effect with Norfloxacin ([2]; MRSA ATCC BAA-1717): Susceptible
combination effect with Oxacillin ([2]; MRSA ATCC BAA-1717): Synergy
combination effect with Tetracycline ([2]; MRSA ATCC BAA-1717): Susceptible
combination effect with Vancomycin ([2]; MRSA ATCC BAA-1717): Susceptible
combination effect with Gentamycin ([2]; MRSA ATCC BAA-1720): Susceptible
combination effect with Norfloxacin ([2]; MRSA ATCC BAA-1720): No Synergy
combination effect with Oxacillin ([2]; MRSA ATCC BAA-1720): Synergy
combination effect with Tetracycline ([2]; MRSA ATCC BAA-1720): Susceptible
combination effect with Vancomycin ([2]; MRSA ATCC BAA-1720): Susceptible
combination effect with Gentamycin ([2]; MRSA ATCC BAA-1747): Susceptible
combination effect with Norfloxacin ([2]; MRSA ATCC BAA-1747): Susceptible
combination effect with Oxacillin ([2]; MRSA ATCC BAA-1747): Susceptible
combination effect with Tetracycline ([2]; MRSA ATCC BAA-1747): Susceptible
combination effect with Vancomycin ([2]; MRSA ATCC BAA-1747): Susceptible
combination effect with Gentamycin ([2]; MRSA ATCC BAA-1754): Susceptible
combination effect with Norfloxacin ([2]; MRSA ATCC BAA-1754): Susceptible
combination effect with Oxacillin ([2]; MRSA ATCC BAA-1754): Synergy
combination effect with Tetracycline ([2]; MRSA ATCC BAA-1754): Susceptible
combination effect with Vancomycin ([2]; MRSA ATCC BAA-1754): Susceptible
combination effect with Gentamycin ([2]; MRSA ATCC BAA-1761): Susceptible
combination effect with Norfloxacin ([2]; MRSA ATCC BAA-1761): No Synergy
combination effect with Oxacillin ([2]; MRSA ATCC BAA-1761): Susceptible
combination effect with Tetracycline ([2]; MRSA ATCC BAA-1761): Susceptible
combination effect with Vancomycin ([2]; MRSA ATCC BAA-1761): Susceptible
combination effect with Gentamycin ([2]; MRSA ATCC BAA-1763): Susceptible
combination effect with Norfloxacin ([2]; MRSA ATCC BAA-1763): No Synergy
combination effect with Oxacillin ([2]; MRSA ATCC BAA-1763): Synergy
combination effect with Tetracycline ([2]; MRSA ATCC BAA-1763): Susceptible
combination effect with Vancomycin ([2]; MRSA ATCC BAA-1763): Susceptible
combination effect with Gentamycin ([2]; MRSA ATCC BAA-1764): Susceptible
combination effect with Norfloxacin ([2]; MRSA ATCC BAA-1764): Susceptible
combination effect with Oxacillin ([2]; MRSA ATCC BAA-1764): Synergy
combination effect with Tetracycline ([2]; MRSA ATCC BAA-1764): Susceptible
combination effect with Vancomycin ([2]; MRSA ATCC BAA-1764): Susceptible
combination effect with Gentamycin ([2]; MRSA ATCC BAA-1766): Susceptible
combination effect with Norfloxacin ([2]; MRSA ATCC BAA-1766): Susceptible
combination effect with Oxacillin ([2]; MRSA ATCC BAA-1766): Synergy
combination effect with Tetracycline ([2]; MRSA ATCC BAA-1766): Susceptible
combination effect with Vancomycin ([2]; MRSA ATCC BAA-1766): Susceptible
A. baumannii colony populations on treatment with compound and PME or PMB [3]: reduced to sterility
Co-treatment with PME: log reduction in the CFU/mL compared to PME alone (P. aeruginosa): 4-log reduction
Co-treatment with PME: log reduction in the CFU/mL compared to PME alone (P. aeruginosa; listed as compound 8): ~4 log reduction
MIC [1]: > 100 µM
